Entries after “also recorded” stand apart in the source; their conditions may differ.
What was measured:
[1] = Isolability / rate of nitroxyl release on attempted synthesis; type: physicochemical; details: electron withdrawing group p-nitrophenyl; nitrosation of 4g with NaNO2 in glacial acetic acid
Experimental: It has been found herein that the rate of release is so fast, when the electron withdrawing group on the carbon acid is p-nitrophenyl, e.g., when the compound is (I) below.
The same would be true where the electron withdrawing group is nitro. Thus the compound of the invention excludes the cases where the electron withdrawing group is nitro or p-nitrophenyl.
A freshly prepared solution of aqueous 10M NaNO2 (0.59 ml, 5.9 mmol) is added dropwise with stirring to a cooled (ice/H2O bath) solution of (1.22 g, 4.9 mmol) 4g in glacial acetic acid (1.5 ml). Stirring is continued for 1 hour. The reaction mixture is diluted with the water (5 mL) and precipitates are filtered off at vacuum. The filter cake is washed with water (20 ml), hexane (20 ml) and dried under vacuum to give

[2] = system: congestive heart failure and a dilated cardiomyopathy; experiment: Treatment of heart failure (Working Example IV); type: in vivo, human; details: person with congestive heart failure and dilated cardiomyopathy; intravenously, blood concentration of 10 nanomolar
Experimental: A person with congestive heart failure and a dilated cardiomyopathy is administered compound (II) intravenously (to obtain a blood concentration of 10 nanomolar). Their ejection fraction improves, their blood pressure decreases, and […] pO2 improves on room air. Symptoms of angina also decrease.

[3] = system: ischemic reperfusion injury; experiment: Prevention of ischemic reperfusion injury (Working Example V); type: in vivo, human; details: person, heart attack, bypass surgery; intravenously, blood concentration of 10 nanomolar from 15 minutes before reperfusion up to 20 minutes thereafter
Experimental: A person presents with a heart attack. Blockage is treated with bypass surgery. The patient is give compound (II) intravenously to maintain a blood concentration of 10 nanomolar 15 minutes before reperfusion up to 20 minutes thereafter.

Compound | stability / isolability (rate of nitroxyl release) [1] | blood pressure [2] | ejection fraction [2] | pO2 on room air [2] | symptoms of angina [2] | ischemic reperfusion injury [3]
CC(=O)C(Cc1ccc([N+](=O)[O-])cc1)(N=O)C(C)=O [Compound (I)] | cannot be isolated; also recorded: couldn't be isolated | – | – | – | – | –
CC(=O)C(Cc1ccc(Br)cc1)(N=O)C(C)=O [Compound (II), 3-(4-bromobenzyl)-3-nitroso-2,4-pentanedione] | – | decreases | improves | improves | decrease | does not occur

From patent US7935847B2, “Nitroxyl ion source with second order reaction nitroxyl release” (Duke University, priority 2007, dated 2011)
